Test results from US5830697A, “P-glycoprotein mutant resistant to cyclosporin modulation” (The Board of Trustees of the Leland Stanford Junior …, priority 1997, dated 1998).
Like-named read-outs stand apart in the source and are kept apart here.

Tests used:
P-gp of Dx5 cells = P-gp of Dx5 cells (Homo sapiens, UniProt P08183)
Protocol: (§6) Photoaffinity Labeling with [^25 -I]-iodoarylazidoprazesin and [^3 H]-Azidopine. […] These preparations were incubated at 25° C. for 1 hour in the dark, followed by a 20 min exposure to a 366 nm UV source (UVP, Inc., San Gabriel, Calif.). 50 μl of loading buffer was added and proteins separated on an 8% SDS-polyacrylamide gel, dried, and analyzed by autoradiography.

Dx5 cells [1] = assay: Rh-123 retention, flow cytometry; assay type: cell-based, human
Protocol: Flow Cytometric Analysis. The flow cytometric analysis of Rh-123 retention and P-gp expression were determined by a dual laser flow cytometer (FACS-II™; Becton Dickinson Corp., Mountain View, Calif.). Double labeling with Rh-123 and the monoclonal antibody UIC2 (Immunotech Coporation, Westbrook, Me.) was performed as previously described. Briefly, following the Rh-123 incubation step, cells were treated with UIC2 (40 μg/ml) and then reacted with either Texas Red or FITC-conjugated goat anti-mouse IgG2a secondary antibody (Caltag, So. San Francisco, Calif,). Cells were centrifuged through a calf serum cushion, resuspended in 200 μl of modified ice-cold Hank's balanced salt solution, and analyzed by flow cytometry.

[2] = molecular target: P-gp of DxP cells (Phe335/336 deletion) (Homo sapiens, UniProt P08183, DEL335-335)
Protocol: as §6

MES-SA/Dx5 (Dx5) cells = assay: Growth inhibition (MTT) assay, with or without MDR modulators; assay type: cell-based, human
Protocol: (§1) Cells and Tissue Culture. Details of the development and characterization of the human cell line MES-SA and its MDR variant MES-SA/Dx5 (D×5), which were derived from sarcoma elements of a uterine mixed Mullerian tumor, are described in Harker and Sikic (1985) Cancer Research 45:3810-3815. MES-SA/DxP5002 (DxP) cells were derived from Dx5.05 cells (D×5 cells selected and maintained at a DOX concentration of 0.5 μM) by step-wise selection in the presence of increasing DOX concentrations (from 40 nM up to 0.5 μM) and a constant PSC 833 concentration at 2 μM over a one-year period. Monolayer cultures of MES-SA cells and its variants were grown in McCoy's medium (Irvine Scientific, Santa Ana, Calif.) supplemented with 10% newborn calf serum (Gibco, Grand Island, N.Y.), 2 mM L-glutamine, and antibiotics(100 U/ml penicillin, 100 μg/ml streptomycin).
(§2) Growth Inhibition Assay. Approximately 8000 cells per well were seeded in 96 well plates and incubated with or without drugs for 72 hr at 37° C. in an atmosphere of 5% CO2. Growth inhibition was evaluated by the MTT colorimetric assay in triplicate or quadruplicate as previously described. The absorbance was measured with a ThermoMax microplate reader (Molecular Devices, Menlo Park, Calif.). The IC50 (drug concentration resulting in 50% inhibition of MTT dye formation, compared to controls) was determined directly from semi-logarithmic dose-response curves. The doubling times of MES-SA, D×5, and D×P were determined as previously described.
(§3) Reversal of MDR by Modulators. […] The modulation ratio was obtained by comparing IC50 s in the presence and absence of modulators.

DxP cells = assay: Cellular accumulation of [3H]-labeled drugs; assay type: cell-based, human
Protocol: (§4) Cellular Accumulation of [^3 H]-Daunorubicin, [^3 H]-Vinblastine, and [^3 H]Cyclosporine. lntracellular drug accumulation was quantified using radiolabeled drugs in a modified assay. The cells were seeded in 35×10 mm tissue culture dishes (Falcon, Becton Dickinson, Lincoln Park, N.J.), at 1×10^6 cells/dish. After overnight incubation, the growth medium was replaced with serum-free McCoy's 5A medium supplemented with 40 mM Hepes buffer (Sigma Chemicals, St. Louis, Mo.). Radiolabeled drugs were added at the appropriate concentration and incubated for 1 hr at 37° C. The medium was aspirated and cell pellet solubilized in 4% SDS at 65° C. for 1 hr. Ecolite™ scintillation cocktail (INC Biochemicals, Costa Mesa, Calif.) was added and radioactivity determined on an LS-9000 scintillation counter (Beckman Instruments, Brea, Calif.). All values were normalized to protein content.

Dx5 cells [3] = assay: Cellular accumulation of [3H]-labeled drugs; assay type: cell-based, human
Protocol: as §4

[4] = test system: MES-SA/DxP5002 (DxP) cells; assay: Growth inhibition (MTT) assay, with or without MDR modulators
Protocol: Cells and Tissue Culture. […] Monolayer cultures of MES-SA cells and its variants were grown in McCoy's medium (Irvine Scientific, Santa Ana, Calif.) supplemented with 10% newborn calf serum (Gibco, Grand Island, N.Y.), 2 mM L-glutamine, and antibiotics(100 U/ml penicillin, 100 μg/ml streptomycin).
as §2, with “The IC50 (drug concentration resulting in 50% inhibition of MTT dye formation, compared to controls) was determined directly from semi-logarithmic dose-response curves.” left out
as §3

MES-SA cells = assay: as above; assay type: cell-based, human; details: MES-SA cells
Protocol: as §1, §2, §3

Dx/PCS cells = assay: MTT assay, DxP subclone; assay type: cell-based, human
Protocol: as §2, §3
(§5) Clonal Analysis of D×P cells. Subcloning of cells was performed by limiting dilution. Both resistant and revertant clones were analyzed for the MDR phenotype, drug accumulation, and rt-PCR or heteroduplex as described above.

Dx/PAS cells = assay: MTT assay, DxP subclone; assay type: cell-based, human
Protocol: as §2, §3, §5

Dx/PGS cells = assay: MTT assay, DxP subclone; assay type: cell-based, human
Protocol: as §2, §3, §5

Dx/PIS cells = assay: MTT assay, DxP subclone; assay type: cell-based, human
Protocol: as §2, §3, §5

Dx/PFS cells = assay: MTT assay, DxP subclone; assay type: cell-based, human
Protocol: as §2, §3, §5

Dx/PJS cells = assay: MTT assay, DxP subclone; assay type: cell-based, human
Protocol: as §2, §3, §5

Dx/PDS cells = assay: MTT assay, DxP subclone; assay type: cell-based, human
Protocol: as §2, §3, §5

Dx/PHS cells = assay: MTT assay, DxP subclone; assay type: cell-based, human
Protocol: as §2, §3, §5

Dx/PBS cells = assay: MTT assay, DxP subclone; assay type: cell-based, human
Protocol: as §2, §3, §5

Dx/PES cells = assay: MTT assay, DxP subclone; assay type: cell-based, human
Protocol: as §2, §3, §5

Dx/PMS cells = assay: MTT assay, DxP subclone; assay type: cell-based, human
Protocol: as §2, §3, §5

Sequence of P-gp of DxP cells (Phe335/336 deletion) (P08183 with tags, fused parts or gaps DEL335-335): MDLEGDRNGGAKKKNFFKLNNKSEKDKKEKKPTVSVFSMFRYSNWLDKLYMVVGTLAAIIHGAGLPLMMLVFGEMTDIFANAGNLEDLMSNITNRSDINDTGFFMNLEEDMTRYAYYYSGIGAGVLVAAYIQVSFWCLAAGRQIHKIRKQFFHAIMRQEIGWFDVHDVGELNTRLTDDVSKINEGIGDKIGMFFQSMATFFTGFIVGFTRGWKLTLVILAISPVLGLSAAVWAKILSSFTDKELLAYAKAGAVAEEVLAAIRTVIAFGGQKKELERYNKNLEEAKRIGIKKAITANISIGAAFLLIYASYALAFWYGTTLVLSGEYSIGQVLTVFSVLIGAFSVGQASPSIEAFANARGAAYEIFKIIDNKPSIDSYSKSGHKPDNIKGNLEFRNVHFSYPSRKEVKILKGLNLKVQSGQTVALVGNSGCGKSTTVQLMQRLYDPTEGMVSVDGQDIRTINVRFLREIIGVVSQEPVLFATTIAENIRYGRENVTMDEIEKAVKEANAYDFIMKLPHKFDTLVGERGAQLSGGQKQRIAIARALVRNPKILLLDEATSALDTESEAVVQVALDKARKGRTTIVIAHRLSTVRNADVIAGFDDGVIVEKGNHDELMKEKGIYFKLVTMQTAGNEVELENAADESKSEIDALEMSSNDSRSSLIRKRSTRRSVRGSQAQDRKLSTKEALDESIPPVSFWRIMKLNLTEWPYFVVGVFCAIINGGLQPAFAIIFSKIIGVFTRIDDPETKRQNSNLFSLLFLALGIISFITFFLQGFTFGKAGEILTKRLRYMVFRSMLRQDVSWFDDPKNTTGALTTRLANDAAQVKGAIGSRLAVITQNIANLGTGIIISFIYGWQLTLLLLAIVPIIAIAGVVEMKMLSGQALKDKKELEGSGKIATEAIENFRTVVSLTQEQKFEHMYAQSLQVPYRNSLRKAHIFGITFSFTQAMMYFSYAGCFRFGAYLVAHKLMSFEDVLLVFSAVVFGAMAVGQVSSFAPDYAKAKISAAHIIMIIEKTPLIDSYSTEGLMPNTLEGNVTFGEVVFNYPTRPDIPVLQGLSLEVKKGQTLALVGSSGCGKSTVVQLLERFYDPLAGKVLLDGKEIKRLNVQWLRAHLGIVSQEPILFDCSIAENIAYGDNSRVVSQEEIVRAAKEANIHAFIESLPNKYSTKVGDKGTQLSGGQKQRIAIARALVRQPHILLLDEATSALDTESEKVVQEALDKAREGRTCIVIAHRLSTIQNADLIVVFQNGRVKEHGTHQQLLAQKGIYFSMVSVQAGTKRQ
Sequence of P-gp of Dx5 cells (P08183 whole entry): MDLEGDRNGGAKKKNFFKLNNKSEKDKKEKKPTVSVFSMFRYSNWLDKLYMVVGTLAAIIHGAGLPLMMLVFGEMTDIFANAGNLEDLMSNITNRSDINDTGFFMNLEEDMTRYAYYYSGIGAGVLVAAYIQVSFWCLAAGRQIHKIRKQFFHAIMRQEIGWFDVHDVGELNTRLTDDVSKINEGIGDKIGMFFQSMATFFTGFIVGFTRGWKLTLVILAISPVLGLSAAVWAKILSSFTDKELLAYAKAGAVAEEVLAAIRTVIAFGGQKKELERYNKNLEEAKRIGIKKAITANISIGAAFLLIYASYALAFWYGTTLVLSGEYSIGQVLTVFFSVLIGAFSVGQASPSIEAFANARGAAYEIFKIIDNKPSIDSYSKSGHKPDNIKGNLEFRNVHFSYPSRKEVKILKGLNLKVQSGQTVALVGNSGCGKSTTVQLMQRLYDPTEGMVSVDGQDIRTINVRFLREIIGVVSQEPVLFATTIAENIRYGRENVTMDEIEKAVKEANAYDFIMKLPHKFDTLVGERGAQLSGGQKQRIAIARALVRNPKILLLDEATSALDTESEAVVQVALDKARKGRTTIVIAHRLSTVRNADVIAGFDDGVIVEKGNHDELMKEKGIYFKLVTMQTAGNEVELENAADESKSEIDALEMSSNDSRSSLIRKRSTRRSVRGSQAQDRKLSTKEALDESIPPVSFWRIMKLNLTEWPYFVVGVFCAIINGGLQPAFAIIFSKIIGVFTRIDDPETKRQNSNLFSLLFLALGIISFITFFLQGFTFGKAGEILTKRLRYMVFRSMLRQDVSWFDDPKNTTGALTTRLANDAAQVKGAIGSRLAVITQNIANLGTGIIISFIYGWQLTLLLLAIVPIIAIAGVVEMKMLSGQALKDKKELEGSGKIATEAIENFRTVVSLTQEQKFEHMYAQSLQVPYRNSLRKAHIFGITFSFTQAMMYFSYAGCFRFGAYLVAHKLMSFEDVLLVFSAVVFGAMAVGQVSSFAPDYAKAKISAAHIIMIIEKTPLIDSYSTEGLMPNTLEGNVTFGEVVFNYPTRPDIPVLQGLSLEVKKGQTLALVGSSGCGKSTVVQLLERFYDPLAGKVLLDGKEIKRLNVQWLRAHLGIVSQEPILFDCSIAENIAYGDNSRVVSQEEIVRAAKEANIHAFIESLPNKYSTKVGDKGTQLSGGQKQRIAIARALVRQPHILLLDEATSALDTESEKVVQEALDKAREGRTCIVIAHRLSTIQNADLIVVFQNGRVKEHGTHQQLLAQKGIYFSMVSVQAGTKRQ

C/C=C/C[C@@H](C)C(=O)[C@H]1C(=O)N[C@@H](C(C)C)C(=O)N(C)CC(=O)N(C)[C@@H](CC(C)C)C(=O)N[C@@H](C(C)C)C(=O)N(C)[C@@H](CC(C)C)C(=O)N[C@@H](C)C(=O)N[C@H](C)C(=O)N(C)[C@@H](CC(C)C)C(=O)N(C)[C@@H](CC(C)C)C(=O)N(C)[C@@H](C(C)C)C(=O)N1C [PSC 833]
Effect on [125I]-iodoarylazidoprazosin photoaffinity labeling of P-gp (P-gp of Dx5 cells; 100 μM): abolished detectable P-gp labeling | Effect on [125I]-iodoarylazidoprazosin photoaffinity labeling of P-gp (P-gp of Dx5 cells; 0.1 and 10 μM): effectively competed | Effect of modulator on Rh-123 accumulation (Dx5 cells [1]; PSC 833 2 μM): completely restored | Displacement of [3H]-azidopine photoaffinity labeling [2]: resistant to the displacement | Effect on [125I]-iodoarylazidoprazosin photoaffinity labeling of P-gp ([2]; 100 μM): abolished detectable P-gp labeling | Effect on [125I]-iodoarylazidoprazosin photoaffinity labeling of P-gp ([2]; 0.1 and 10 μM): enhanced photoaffinity binding | Modulation of MDR by the modulator (in words) (MES-SA/Dx5 (Dx5) cells; 2 μM, sensitivity to DOX, vinblastine, paclitaxel, vincristine and colchicine relative to MES-SA): completely restored the sensitivity | Modulation of decreased drug accumulation by modulator (DxP cells; DxP cells): not modulated | Modulation of decreased drug accumulation by modulator (Dx5 cells [3]): complete modulation | Modulation of decreased [3H]-cyclosporin accumulation by modulator (Dx5 cells [3]; to levels of DxP and MES-SA cells): completely modulated | Resistance of cells to the modulating effects of the modulator (in words) ([4]; DxP cells, PSC 833 2 μM, cyclosporin 3 μM, verapamil 6 μM): almost completely resistant

[^3 H]-vinblastine
Intracellular accumulation in DxP relative to Dx5 cells (DxP cells; [3H]-labeled drug, 1 hr): approximately 3 fold

Rhodamine-123 [Rh-123]
Cellular accumulation of Rh-123 (Dx5 cells [1]): markedly decreased

COc1cccc2c1C(=O)c1c(O)c3c(c(O)c1C2=O)C[C@@](O)(C(=O)CO)C[C@@H]3O[C@H]1C[C@H](N)[C@H](O)[C@H](C)O1 [Doxorubicin]
IC50 (MES-SA cells; Homo sapiens, 72 hr MTT, read-out: IC50 of drug-sensitive MES-SA cells (values in parenthesis)): 40 nM | Fold resistance (MES-SA cells; +2 μM PSC 833): 1 fold | Fold resistance (MES-SA cells; +3 μM cyclosporin A): 0.5 fold | Fold resistance (MES-SA cells; +6 μM Verapamil): 0.5 fold | Fold resistance (MES-SA cells; no modulator, 72 hr MTT): 1 fold | Fold resistance (MES-SA/Dx5 (Dx5) cells; +2 μM PSC 833): 1 fold | Fold resistance (MES-SA/Dx5 (Dx5) cells; +3 μM cyclosporin A): 2 fold | Fold resistance (MES-SA/Dx5 (Dx5) cells; +6 μM Verapamil): 4 fold | Fold resistance (MES-SA/Dx5 (Dx5) cells; no modulator, relative to MES-SA): 80 fold | Level of resistance of DxP cells to the cytotoxin compared with parental Dx5 (in words) ([4]; DxP cells): similar | Fold resistance ([4]; DxP cells, +2 μM PSC 833): 53 fold | Fold resistance ([4]; DxP cells, +3 μM cyclosporin A): 30 fold | Fold resistance ([4]; DxP cells, +6 μM Verapamil): 18 fold | Fold resistance ([4]; DxP cells, no modulator, relative to MES-SA): 77 fold | Dx5/DxP, fold of resistance difference in DxP cells compared with parental Dx5 cells ([4]; DxP vs Dx5): 1 fold | fold resistance relative to MES-SA (Dx/PCS cells; + PSC): 23 fold | fold resistance relative to MES-SA (Dx/PCS cells; no modulator): 50 fold | fold resistance relative to MES-SA (Dx/PAS cells; + PSC): 51 fold | fold resistance relative to MES-SA (Dx/PAS cells; no modulator): 163 fold | fold resistance relative to MES-SA (Dx/PGS cells; + PSC): 7 fold | fold resistance relative to MES-SA (Dx/PGS cells; no modulator): 7 fold | fold resistance relative to MES-SA (Dx/PIS cells; + PSC): 3 fold | fold resistance relative to MES-SA (Dx/PIS cells; no modulator): 13 fold | fold resistance relative to MES-SA (Dx/PFS cells; + PSC): 75 fold | fold resistance relative to MES-SA (Dx/PFS cells; no modulator): 150 fold | fold resistance relative to MES-SA (Dx/PJS cells; + PSC): 75 fold | fold resistance relative to MES-SA (Dx/PJS cells; no modulator): 175 fold | fold resistance relative to MES-SA (Dx/PDS cells; + PSC): 100 fold | fold resistance relative to MES-SA (Dx/PDS cells; no modulator): 150 fold | fold resistance relative to MES-SA (Dx/PHS cells; + PSC): 37 fold | fold resistance relative to MES-SA (Dx/PHS cells; no modulator): 83 fold | fold resistance relative to MES-SA (Dx/PBS cells; + PSC): 13 fold | fold resistance relative to MES-SA (Dx/PBS cells; no modulator): 67 fold | fold resistance relative to MES-SA (Dx/PES cells; + PSC): 100 fold | fold resistance relative to MES-SA (Dx/PES cells; no modulator): 96 fold | fold resistance relative to MES-SA (Dx/PMS cells; + PSC): 50 fold | fold resistance relative to MES-SA (Dx/PMS cells; no modulator): 100 fold
